Experimental data as given in the NIST ThermoML archive (doi:10.1021/je030156p).
Numbers after ± are expanded uncertainties.

Conditions: Liquid, Ebulliometric method (Recirculating still)

Structure (SMILES) | vapor or sublimation pressure (268.15 K) | vapor or sublimation pressure (273.15 K) | vapor or sublimation pressure (283.15 K) | vapor or sublimation pressure (293.15 K) | vapor or sublimation pressure (303.15 K) | vapor or sublimation pressure (313.15 K)
CCC [propane] | 407.9 ± 2 kPa | 476.9 ± 2 kPa | 637.2 ± 2.1 kPa | 839.2 ± 2.1 kPa | 1074.6 ± 2.1 kPa | 1364.3 ± 2.2 kPa
FC(F)C(F)(F)F [pentafluoroethane] | 573.7 ± 2 kPa | 671.4 ± 2.1 kPa | 907.6 ± 2.1 kPa | 1202.8 ± 2.1 kPa | 1566 ± 2.2 kPa | 2004.9 ± 2.2 kPa
